This note sets out measurements from ChEMBL document CHEMBL1140261, “Novel 1-[2-(diarylmethoxy)ethyl]-2-methyl-5-nitroimidazoles as HIV-1 non-nucleoside reverse transcriptase inhibitors. A structure-activity relationship investigation” (J Med Chem, 2005).

Experiment [1] relates to MT4. In words: Concentration required to reduce the viability of mock-infected cells by 50%; determined by MTT method. In kind it is functional. The note with it: Homo sapiens.
Experiment [2] deals with MT4. As to the kind of experiment: (§1) Selective index as the ratio of CC50 and EC50. Format: functional.
In experiment [3] the test system is MT4. In words: Concentration required to protect MT-4 cells from HIV-1 induced cytopathogenicity by 50%; determined by MTT method. In kind it is functional, cell-based. The settings on record: Homo sapiens.
In experiment [4] the test system is Human immunodeficiency virus type 1 reverse transcriptase (Human immunodeficiency virus 1), Q72547 [Y181I].
Experiment [5] deals with Human immunodeficiency virus type 1 reverse transcriptase (Human immunodeficiency virus 1), Q72547 [L100I]. As to the kind of experiment: Dose required to inhibit HIV-1 reverse transcriptase activity (L100I mutant) by 50%.
Experiment [6] relates to Human immunodeficiency virus type 1 reverse transcriptase (Human immunodeficiency virus 1), Q72547 [K103N]. In words: Dose required to inhibit HIV-1 reverse transcriptase activity (K103N mutant) by 50%.
Experiment [7] deals with Human immunodeficiency virus type 1 reverse transcriptase (Human immunodeficiency virus 1), Q72547 [V179D].
Description: Dose required to inhibit HIV-1 reverse transcriptase activity (V179D mutant) by 50%
The subject of experiment [8] is Human immunodeficiency virus type 1 reverse transcriptase (Human immunodeficiency virus 1), Q72547 [R221A].
Description: Dose required to inhibit HIV-1 reverse transcriptase activity (Y188L mutant) by 50%
In experiment [9] the target is Human immunodeficiency virus type 1 reverse transcriptase (Human immunodeficiency virus 1) (UniProt Q72547).
Description: Dose required to inhibit HIV-1 reverse transcriptase activity (wild-type) by 50%
Experiment [10] concerns MT4. The description is as §1. In kind it is functional, Human immunodeficiency virus 1.
Experiment [11] addresses T1, Human immunodeficiency virus type 1 reverse transcriptase (Human immunodeficiency virus 1, UniProt Q72547). As to the kind of experiment: Concentration required to inhibit HIV-1 reverse transcriptase activity (wild-type) enzyme.
Experiment [12] deals with Human immunodeficiency virus type 1 reverse transcriptase (Human immunodeficiency virus 1), Q72547 [K103N].
Experiment [13] has as its system Human immunodeficiency virus type 1 reverse transcriptase (Human immunodeficiency virus 1), Q72547 [L100I].
Description: Dose required to inhibit HIV-1 reverse transcriptase activity ( L100I mutant) by 50%
The target in experiment [14] is T1, Human immunodeficiency virus type 1 reverse transcriptase. In words: Concentration required to inhibit HIV-1 reverse transcriptase activity of wild-type enzyme. In kind it is functional.
In experiment [15] the target is Human immunodeficiency virus type 1 reverse transcriptase (Human immunodeficiency virus 1) (UniProt Q72547). In words: Dose required to inhibit HIV-1 reverse transcriptase activity of wild-type enzyme by 50%.
The target of experiment [16] is T1, Human immunodeficiency virus type 1 reverse transcriptase. As to the kind of experiment: Concentration required to inhibit HIV-1 reverse transcriptase activity (wild-type) by 50%. In kind it is functional.

Take `Cc1ncc([N+](=O)[O-])n1CCNC(c1ccccc1)c1cccc(F)c1` (stereo unspecified): the CC50 in the experiment with MT4 [1] was over 100 µM. Further, in the experiment with MT4 [2], the SI is recorded as over 55.6. For the same molecule, the EC50 with MT4 [3] is 1.8 µM.
Regarding `Cc1ncc([N+](=O)[O-])n1CCOC(c1cccs1)c1cccc(F)c1F` (stereo unspecified), the CC50 with MT4 [1] was over 100 µM. For the same molecule, the SI in the experiment with MT4 [2] was over 1667. The same molecule returned an EC50 in the experiment with MT4 [3] of 0.06 µM.
In the same order, the values of `Cc1ccc(C(OCCn2c([N+](=O)[O-])cnc2C)c2cccs2)cc1` (stereo unspecified) are over 100 µM, over 3333 and 0.3 µM.
As to `Cc1ncc([N+](=O)[O-])n1CCOC(c1cccc(Cl)c1)c1cccs1` (stereo unspecified), the ID50 in experiment [4] was found to be 6.25 µM; in experiment [5], 3.2 µM; in experiment [6] it was 5.1 µM; in experiment [7], 10.8 µM; in experiment [8] it was 15.1 µM; in experiment [9], 1.17 µM. Besides, in the experiment with MT4 [1], the CC50 is 72 µM. The SI in the experiment on MT4 [2] amounted to 900. The response in the experiment on MT4 [3] was half-maximal at 0.08 µM (EC50).
The molecule `O=[N+]([O-])c1cn(CCOC(c2ccccc2)c2ccccc2)cn1` registered a CC50 in the experiment with MT4 [1] of over 100 µM. Further, the SI in the experiment with MT4 [2] is on record as over 1.3. The molecule also yielded an EC50 with MT4 [3] of 78 µM.
`Cc1ncc([N+](=O)[O-])n1CCSC(c1ccccc1)c1cccc(Cl)c1` (stereo unspecified): the CC50 with MT4 [1] is over 100 µM. Also, in the experiment on MT4 [2], the SI was over 1.6. Further, the midpoint of the response in the experiment on MT4 [3], the EC50, lay at 64 µM.
For `Cc1ncc([N+](=O)[O-])n1CCOC(c1ccccc1)c1ccc(Cl)s1` (stereo unspecified) the same measures were over 100 µM, 8.33 and 1.2 µM.
In the same order, the values of `Cc1ncc([N+](=O)[O-])n1CCS(=O)(=O)C(c1ccccc1)c1ccccc1` are over 100 µM, over 19.3 and 5.2 µM.
In the case of `Cc1ncc([N+](=O)[O-])n1CCOC(c1ccccc1)c1ccc2ccccc2c1` (stereo unspecified), in the experiment on MT4 [1], the CC50 was over 100 µM. The same molecule yielded an EC50 with MT4 [3] of over 100 µM.
Regarding `Cc1cccc(C(NCCn2c([N+](=O)[O-])cnc2C)c2ccccc2)c1` (stereo unspecified), the CC50 in the experiment on MT4 [1] was over 100 µM. The SI in the experiment with MT4 [2] is reported as over 1.5. A half-maximal effect with MT4 [3] (EC50) was put at 65 µM.
For `Cc1ncc([N+](=O)[O-])n1CCNC(c1ccccc1)c1cccc(Cl)c1` (stereo unspecified) the same measures were over 100 µM, over 47.6 and 2.1 µM.
In the same order, the values of `Cc1ncc([N+](=O)[O-])n1CCOCc1ccccc1` are over 100 µM, over 2.38 and 4.2 µM.
On to `Cc1ncc([N+](=O)[O-])n1CCOC(c1cccs1)c1ccccc1Cl` (stereo unspecified), for which, in the experiment on MT4 [1], the CC50 is over 100 µM. Moreover, in the experiment on MT4 [2], the SI is reported as over 52.6. In addition, in the experiment with MT4 [3], a half-maximal effect (EC50) was put at 1.9 µM.
For the molecule `Cc1ncc([N+](=O)[O-])n1CCSC(c1ccccc1)c1ccccc1F` (stereo unspecified), the 50% cytotoxic concentration (CC50) in the experiment on MT4 [1] was over 100 µM. In the experiment on MT4 [2], the SI was over 20. The molecule further came in with an EC50 in the experiment with MT4 [3] of 5 µM.
For the molecule `Cc1ncc([N+](=O)[O-])n1CCNCc1ccccc1`, the CC50 in the experiment on MT4 [1] was over 100 µM. Also, in the experiment on MT4 [3], the EC50 was over 100 µM.
As to `Cc1ncc([N+](=O)[O-])n1CCOC(c1ccccc1)c1ccco1` (stereo unspecified), in the experiment with MT4 [1], the CC50 is over 100 µM. Besides, the SI in the experiment with MT4 [2] was over 840. The molecule also gave an EC50 in the experiment with MT4 [3] of 0.1 µM.
In the experiment with MT4 [1], `Cc1ncc([N+](=O)[O-])n1CCNC(c1ccccc1)c1ccccc1F` (stereo unspecified) showed a CC50 of over 100 µM. Besides, the SI in the experiment with MT4 [2] is listed as over 2. This molecule gave an EC50 in the experiment with MT4 [3] of 50 µM.
For `Cc1nc([N+](=O)[O-])cn1CCOC(c1ccccc1)c1ccccc1` the same measures were over 100 µM, over 1.5 and 67 µM.
In turn, `Cc1ncc([N+](=O)[O-])n1CCSC(c1ccccc1)c1ccccc1Cl` (stereo unspecified) yielded a CC50 in the experiment on MT4 [1] of over 100 µM. Besides, in the experiment on MT4 [2], the SI is listed as over 8.3. The molecule further showed an EC50 with MT4 [3] of 12 µM.
For the molecule `Cc1ncc([N+](=O)[O-])n1CCOC(c1ccccc1)c1ccccc1`, the CC50 in the experiment on MT4 [1] was over 100 µM. Also, the SI with MT4 [2] is reported as over 500.
With `Cc1ncc([N+](=O)[O-])n1CCOC(c1ccc(Cl)cc1)c1cccs1` (stereo unspecified), the half-maximal cytotoxic concentration (CC50) in the experiment on MT4 [1] is over 100 µM. Further, the SI with MT4 [2] was over 1.7. Moreover, the EC50 in the experiment with MT4 [3] was 58 µM.
For `Cc1ncc([N+](=O)[O-])n1CCSCc1ccccc1` the same measures were over 100 µM, over 1.7 and 60 µM.
In the same order, the values of `Cc1ncc([N+](=O)[O-])n1CCOC(c1cccc(F)c1)c1cccs1` (stereo unspecified) are over 100 µM, over 714 and 0.14 µM.
Regarding `Cc1ncc([N+](=O)[O-])n1CCOC(c1cccs1)c1ccccc1F` (stereo unspecified), the CC50 in the experiment on MT4 [1] is over 100 µM. Further, the SI in the experiment on MT4 [2] was over 833. The molecule also displayed an EC50 with MT4 [3] of 0.12 µM.
Regarding `Cc1ncc([N+](=O)[O-])n1CCOC(c1ccccc1)c1cccs1` (stereo unspecified), the ID50 is over 50 µM in [4]; 1.9 µM in [7]; 8.25 µM in [12]; 30.2 µM in [8]; 5.5 µM in [13]; 0.37 µM in experiment [9]. Also, the SI in the experiment on MT4 [10] is over 3333. This molecule came in with a CC50 in the experiment with MT4 [1] of over 100 µM. In addition, the EC50 (in experiment [11]; in the experiment on MT4 [3]) was 0.03 µM throughout.
For `Cc1ncc([N+](=O)[O-])n1CCSC(c1ccccc1)c1ccccc1`, the EC50 was found to be 2.3 µM in experiment [14] and 1.2 µM with MT4 [3]. The same molecule registered an ID50 in [15] of 10.6%. In addition, in the experiment on MT4 [1], the CC50 was over 100 µM. Also, the SI with MT4 [2] is on record as over 83.5.
In the experiment with MT4 [1], `Cc1ncc([N+](=O)[O-])n1CCOC(c1ccccc1)c1cccnc1` (stereo unspecified) had a CC50 of over 100 µM. Also, in the experiment with MT4 [2], the SI is reported as over 1250. This molecule registered an EC50 with MT4 [3] of 0.08 µM.
In the experiment with MT4 [1], `O=[N+]([O-])c1cncn1CCOC(c1ccccc1)c1ccccc1` had a CC50 of over 100 µM. This molecule also had an EC50 in the experiment with MT4 [3] of over 100 µM.
With `Cc1ccnc2c1NC(=O)c1cccnc1N2C1CC1`, the ID50 was determined as 36 µM in experiment [4]; 0.3 µM in [7]; 7 µM in [12]; 18 µM in experiment [8]; 9 µM in [13]; 0.4 µM in [9].
On to `Cc1ncc([N+](=O)[O-])n1CCSC(c1ccccc1)c1cccc(F)c1` (stereo unspecified), for which, in the experiment on MT4 [1], the CC50 is over 100 µM. In the experiment on MT4 [2], the SI is reported as over 1.2. In addition, the midpoint of the response in the experiment with MT4 [3], the EC50, lay at 80 µM.
In the same order, the values of `Cc1nc([N+](=O)[O-])cn1CCOCc1ccccc1` are over 100 µM, over 4.5 and 22 µM.
`Cc1ncc([N+](=O)[O-])n1CCOC(c1ccc(F)cc1)c1cccs1` (stereo unspecified) yielded a CC50 with MT4 [1] of over 100 µM. Besides, in the experiment on MT4 [2], the SI is reported as over 32.3. In the experiment with MT4 [3], this molecule returned an EC50 of 3.1 µM.
Consider `Cc1ccccc1C(OCCn1c([N+](=O)[O-])cnc1C)c1cccs1` (stereo unspecified), for which the CC50 in the experiment with MT4 [1] is 92 µM. In the experiment on MT4 [2], the SI is on record as 204. In addition, it took 0.45 µM to reach a half-maximal effect in the experiment on MT4 [3] (EC50).
With `Cc1ncc([N+](=O)[O-])n1CCNC(c1ccccc1)c1ccccc1`, the CC50 in the experiment on MT4 [1] is over 100 µM. Also, the EC50 turned out to be 8 µM in experiment [16] and 12 µM in the experiment with MT4 [3]. Moreover, in the experiment with MT4 [2], the SI is recorded as over 8.3. Also, the ID50 in [9] stood at 16.5 µM.
`Cc1ncc([N+](=O)[O-])n1CCNC(c1ccccc1)c1ccccc1Cl` (stereo unspecified) registered a CC50 in the experiment with MT4 [1] of over 100 µM. For the same molecule, in the experiment with MT4 [2], the SI is over 1.1. For the same molecule, the response with MT4 [3] was half-maximal at 90 µM (EC50).
In the same order, the values of `Cc1ccc(C(NCCn2c([N+](=O)[O-])cnc2C)c2ccccc2)cc1` (stereo unspecified) are over 100 µM, over 2.3 and 44 µM.
For `Cc1ncc([N+](=O)[O-])n1CCOC(c1ccccc1)C1CCCCC1` (stereo unspecified) the same measures were over 100 µM, over 333.3 and 0.3 µM.
For `Cc1cccc(C(SCCn2c([N+](=O)[O-])cnc2C)c2ccccc2)c1` (stereo unspecified) the same measures were over 100 µM, over 33.3 and 3 µM.
Molecule `Cc1ncc([N+](=O)[O-])n1CCN(Cc1ccccc1)C1CCCCC1` registered a CC50 in the experiment on MT4 [1] of over 100 µM. Also, the SI in the experiment on MT4 [2] was over 1.2. Also, it took 84 µM to reach a half-maximal effect in the experiment on MT4 [3] (EC50).
For the molecule `Cc1ncc([N+](=O)[O-])n1CCNC(c1ccccc1)c1ccc(F)cc1` (stereo unspecified), in the experiment with MT4 [1], the CC50 is over 100 µM. Moreover, the SI with MT4 [2] is recorded as over 1.1. The EC50 with MT4 [3] amounted to 92 µM.
